This note sets out measurements from USH1551H, “Topical composition and method for reducing hair loss from human scalp” (priority 1982, dated 1996).

Structures are written as SMILES.

What is called inhibition is how much of the control response was suppressed. By LD50 is commonly meant the dose at which mortality reaches 50%. Low readings indicate a more toxic substance, high ones a less toxic substance.

One data set has as its system 5α-DHT receptor protein. The data set can be described thus: Inhibitory effect on binding of 5α-DHT with the receptor protein. The conditions noted are these: for Rate of inhibition (binding of 5α-DHT with the receptor protein): 10^-6 molar concentration. The method, then:
Based on the method of Takayasu et al. (Arch. Dermatol. Res., 264, 50-51, 1979), the amount of 5α-DHT bound with the receptor protein was measured. The concentration of the sample used in the experiment was 10^-6 molar concentration. The rate of inhibition was calculated from the following equation using the resulting data.
Rate of inhibition (%)=(C-t/C)×100
C: the amount of 5α-DHT bound with the receptor protein in a control
t: the amount of 5α-DHT bound with the receptor protein when the sample was added

Data set [1] has as its target T1, testosterone-5α-reductase (Mesocricetus auratus, UniProt C7T2J7).
T1 construct: by using the sebaceous gland at the back of a hamster; from tissue; host or cells: sebaceous gland at the back of a hamster
T1 sequence (C7T2J7 1-255): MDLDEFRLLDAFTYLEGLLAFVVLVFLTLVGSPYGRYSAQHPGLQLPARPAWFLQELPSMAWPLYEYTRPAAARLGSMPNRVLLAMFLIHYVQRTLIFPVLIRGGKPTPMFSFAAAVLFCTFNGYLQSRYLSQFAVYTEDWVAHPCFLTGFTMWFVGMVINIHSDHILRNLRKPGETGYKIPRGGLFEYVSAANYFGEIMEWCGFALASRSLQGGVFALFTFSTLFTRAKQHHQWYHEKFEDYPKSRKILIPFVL
The data set can be described thus: Inhibitory effect on the reductase activity (testosterone reduced to 5α-DHT, hamster sebaceous gland). In kind it is biochemical. The conditions noted are these: for inhibition at 100 µM: 10^-4 molar concentration; for inhibition at 100 µM / inhibition at 10 µM: read-out: Rate of inhibition (reductase activity); for inhibition at 10 µM: 10^-5 molar concentration. The method, then:
Based on the method of Takayasu et al. (The Nishinihon Journal of Dermatology, 43, 1215-1217, 1981), the amount of testosterone reduced to 5α-DHT was measured by using the sebaceous gland at the back of a hamster. The concentrations of the samples used in the experiment were 10^-4 and 10^-5 molar concentrations, respectively. The rate of inhibition was calculated from the following equation using the resulting data.
Rate of inhibition (%)=(C-t/C) ×100
C: the amount of 5α-DHT formed in a control
t: the amount of 5α-DHT formed when the sample was added

The subject of data set [2] is head sebum / basal cells of hair. The data set can be described thus: Decrease of head sebum and mitosis of basal cells of hair. The conditions noted are these: coupled with the defatting actions of ethanol.
The test system of data set [3] is uptake of testosterone into the cells. The data set can be described thus: Inhibition of uptake of testosterone into the cells. The format is cell-based.
The subject of another data set is hair and scalp. The data set can be described thus: Toxicity test of the present hair grower (local application). In kind it is in vivo, human. To be noted: 0.2% ethanol solution.
Data set [4] is described as follows: Acute toxicity (LD50) of oxendolone, rat. The conditions noted are these: in vivo. An excerpt: (§1) The systemic acute toxicity of oxendolone is as follows:
(§2) Acute Toxicity (LD50 : mg/kg)

Data set [5] is described as follows: Acute toxicity (LD50) of oxendolone, mouse. The conditions noted are these: in vivo.
From the text: as §1, §2

For data set [6], the system named is MPB (male pattern baldness). The data set can be described thus: Clinical cases, male pattern baldness (MPB), topical application. In kind it is in vivo, human. The conditions noted are these: The patient; Resorcinol and other lotions for application. An excerpt:
The following preparations were used in the tests (1)-(22). MPB represents male pattern baldness.

Regarding `C[C@]12CC[C@H]3[C@@H](CCC4=CC(=O)CC[C@@]43C)[C@@H]1CC[C@@H]2C(=O)O` [4-androsten-3-one-17β-carboxylic acid], the “Rate of inhibition (binding of 5α-DHT with the receptor protein)” value in the data set with 5α-DHT receptor protein was 0%. Moreover, in data set [1], the inhibition at 100 µM was found to be 54 ± 32% and the inhibition at 10 µM was found to be 31 ± 19%.

As to `CC[C@H]1C[C@H]2[C@@H]3CCC4=CC(=O)CC[C@@H]4[C@H]3CC[C@]2(C)[C@H]1O` [Oxendolone, 16β-ethyl-17β-hydroxy-4-estren-3-one], the “decrease of head sebum and mitosis of basal cells of hair” value in data set [2] was “synergistically produce a decrease of head sebum and promote the mitosis of basal cells of hair”. For the same molecule, the “Rate of inhibition (binding of 5α-DHT with the receptor protein)” value with 5α-DHT receptor protein was found to be 53%. Besides, the “inhibitory effect on the binding of 5α-DHT with the receptor protein compared with 4-androsten-3-one-17β-carboxylic acid” value in the data set with 5α-DHT receptor protein (comparison, Table 2) was “greater”. Also, the solubility in ethanol entry in “Solubility of oxendolone” (ethanol) is reported as “soluble”. The “solubility in vegetable oils, squalane, alcohols, fatty acids, silicone oils, etc.” value in the data set “Solubility of oxendolone” (vegetable oils etc.) was “dissolved totally or partially”. Also, the solubility in water entry in “Solubility of oxendolone” (water) is “practically insoluble”. Moreover, in data set [3], the “inhibition of uptake of testosterone into the cells” value is listed as “inhibit uptake of testosterone into the cells”. Further, in the data set with hair and scalp (0.05 ml/cm^2, several times a day), the local acute toxicity entry is “No local acute toxicity was observed”. The “other systemic or local side effect” value in the data set with hair and scalp (in the application schedule) is “No other systemic or local side effect was observed”. In addition, in data set [1], the inhibition at 100 µM was 43 ± 18%. For the same molecule, the inhibition at 10 µM in data set [1] was found to be 28 ± 28%. In [1] (comparison, Table 1), the “inhibitory effect on the reductase activity compared with 4-androsten-3-one-17β-carboxylic acid” value is listed as “equivalent inhibitory effect on the reductase activity”. The LD50 in [4] (im, female, intramuscular) is over 10000 mg/kg; in data set [4] (im, male, intramuscular) it was over 10000 mg/kg; in data set [4] (ip, female, intraperitoneal), 5880 mg/kg; in data set [4] (ip, male, intraperitoneal) it was 6530 mg/kg; in data set [5] (im, female, intramuscular), over 10000 mg/kg; in [5] (im, male, intramuscular), over 10000 mg/kg. The LD50 in [5] (ip, female, intraperitoneal) was found to be 2980 mg/kg; in data set [5] (ip, male, intraperitoneal), 2930 mg/kg.

For the molecule `Oc1cccc(O)c1` [Resorcinol], the “effect of previous treatment, case (9)” value in [6] is recorded as “no appreciable change”.
